This is an account of results in patent publication US11180483B2, “Substituted reverse pyrimidine Bmi-1 inhibitors” (PTC Therapeutics, Inc., priority 2012, dated 2021).

As usually defined, the EC50 is the midpoint of the concentration-response curve. Low readings indicate a more potent agent, high ones a less potent agent.

The subject of this experiment is Bmi-1. In words: Sandwich ELISA Assay (Bmi-1 ELISA) in HT-1080 cells. The experiment is classed as cell-based. The method, then:
Cell Seeding and Compound Treatment (Day 1):
HT-1080 cells were seeded at 8000 cells/well (50 μL) in 96-well tissue culture plates. After the cells became adherent (3-4 hours), 2× diluted stocks of test compounds in 50 μL DMEM containing 1% DMSO (final DMSO concentration was 0.5%) were added and the plates were incubated at 37° C. under 5% CO2 for 40-48 hours.
ELISA Plate First Antibody Preparation (Day 2):
The First Antibody (Millipore Mouse, monoclonal to mouse Bmi-1, clone F6, catalog #05-637) diluted to 2 μg/mL in PBS was added (100 μL) to each well of a Nunc MaxiSorp 96-well ELISA plate. The plate was covered with a plate seal and allowed to stand overnight.
Cell Lysate Preparation (Day 3):
Fresh 1× Lysis buffer was prepared on the day of the assay as follows: 1 mM EDTA, 150 mM NaCl, 0.5% Triton-X 100, 10 mM NaF, 20 mM B-Glycerophosphate, 1 mM DTT (in PBS, pH 7.2-7.4) and 1× HALT protease inhibitor cocktail (Pierce #78410).
The 1× Lysis Buffer (40 μL) was added to each well and the plate was shaken for 5-10 minutes on an orbital shaker to allow cell lysis, then diluent (1% BSA in PBS in 0.5% NP40) (100 μL) was added to each well.
A standard curve was prepared at the following Bmi-1 concentrations: 8000, 4000, 2000, 1000, 500, 250, 125, 0 pg/mL The Bmi-1 Recombinant Protein Standard (Novus Biologicals PCGF4 Recombinant Protein (P01), catalog #H00000648-P01) used to prepare the standard curve was stored at −80° C. On first thaw, the Bmi-1 Recombinant Protein Standard was diluted to […] in Blocking Buffer (1% BSA in PBS; BSA: Fisher Scientific Catalog #1600-100). Aliquots were taken and refrozen at −80° C. The aliquots may be kept at 4° C. and reused after first thaw, but only within 1-2 weeks. The Bmi-1 Recombinant Protein Standard contains a GST-fusion tag that appears around 70 Kda on Western Blot.
The prepared ELISA plate was washed 3× with Wash Buffer (0.05% Tween-20 in PBS). The final wash was removed from the plate and the plate was blotted dry. Blocking Buffer (300 μL) (1% BSA in PBS) was added to each well. The plate was covered with a plate seal and incubated at room temperature for 1 hour. The blocked plate was washed 3× with Wash Buffer, then the final wash was removed and the plate was blotted dry. The previously prepared samples and standards were added (100 μL/well) and the plate was covered with a plate seal and incubated at 4° C. overnight.
The prepared ELISA plate was removed from 4° C., incubated at room temperature for 30 minutes, then washed and blotted dry as previously described for Day 3. The Second Antibody (Cell Signaling Rabbit anti-Bmi-1, Cat #2830) diluted to 1:600 in Blocking Buffer was added (100 μL) to each well, except as needed for background control wells. The plate was covered with a plate seal and incubated for 1.5 hrs at room temperature.
The ELISA plate was washed and blotted dry as previously described. The Third Antibody (Cell Signaling HRP conjugated anti-rabbit IgG (CellSignaling, Cat #:7074) diluted to 1:300 in Blocking Buffer was added (100 μL) to each well, except as needed for background control wells. The plate was incubated for 1 hr at room temperature.
The plate was washed and blotted dry as previously described, then prepared TMB substrate (TMB substrate kit, Pierce catalog #34021) (prepared by mixing kit reagents 1:1) (100 μL) was added per well. The plate was incubated for 20-30 minutes at room temperature in the dark, then Stop Solution (2 M sulfuric acid in water) (50 μL) was added per well. The plates were read at OD450 (experimental) and OD570 (reference).
(ELISA stands for enzyme-linked immunosorbent assay.)
Compound `COc1ccc(Nc2ccnc(-n3c(C)nc4ccccc43)n2)cc1` [Cpd 1, N-(4-methoxyphenyl)-2-(2-methyl-1H-benzimidazol-1-yl)pyrimidin-4-amine] had a half-maximal effective concentration (EC50) of 10 to 100 nM.
To `Cc1nc2ccccn2c1-c1nccc(Nc2ccc3c(c2)OCCO3)n1` [Cpd 2, N-(2,3-dihydro-1,4-benzodioxin-6-yl)-2-(2-methylimidazo[1,2-a]pyridin-3-yl)pyrimidin-4-amine] belongs 100 to 3000 nM; to `Cc1nc2ccccn2c1-c1nccc(Nc2ccc(C(F)(F)F)cc2)n1` [Cpd 3, 2-(2-methylimidazo[1,2-a]pyridin-3-yl)-N-[4-(trifluoromethyl)phenyl]pyrimidin-4-amine], 10 to 100 nM.
To `COc1ccc(Nc2ccnc(-c3c(C)nc4ccccn34)n2)cc1` [Cpd 4, N-(4-methoxyphenyl)-2-(2-methylimidazo[1,2-a]pyridin-3-yl)pyrimidin-4-amine] belongs 10 to 100 nM; to `Cc1nc2ccccn2c1-c1nccc(Nc2ccc(Cl)cc2)n1` [Cpd 5, N-(4-chlorophenyl)-2-(2-methylimidazo[1,2-a]pyridin-3-yl)pyrimidin-4-amine], 100 to 3000 nM.
`Cc1nc2ccccn2c1-c1nccc(Nc2ccccc2)n1` [Cpd 6, 2-(2-methylimidazo[1,2-a]pyridin-3-yl)-N-phenylpyrimidin-4-amine] gave a 50% effective concentration (EC50) of 10 to 100 nM.
Compound `FC(F)(F)c1ccc(Nc2ccnc(-c3c(C(F)(F)F)nc4ccccn34)n2)cc1` [Cpd 7, 2-[2-(trifluoromethyl)imidazo[1,2-a]pyridin-3-yl]-N-[4-(trifluoromethyl)phenyl]pyrimidin-4-amine] yielded an EC50 of 100 to 3000 nM.
To `FC(F)(F)c1nc2ccccn2c1-c1nccc(Nc2ccc(Cl)cc2)n1` [Cpd 8, N-(4-chlorophenyl)-2-[2-(trifluoromethyl)imidazo[1,2-a]pyridin-3-yl]pyrimidin-4-amine] belongs 100 to 3000 nM; to `Cc1ccc(Nc2ccnc(-c3c(C(F)(F)F)nc4ccccn34)n2)cc1` [Cpd 9, N-(4-methylphenyl)-2-[2-(trifluoromethyl)imidazo[1,2-a]pyridin-3-yl]pyrimidin-4-amine], 1 to 10 nM.
To `FC(F)(F)c1nc2ccccn2c1-c1nccc(Nc2ccc(Br)cc2)n1` [Cpd 10, N-(4-bromophenyl)-2-[2-(trifluoromethyl)imidazo[1,2-a]pyridin-3-yl]pyrimidin-4-amine] belongs 10 to 100 nM.
For the compound `FC(F)Oc1ccc(Nc2ccnc(-c3c(C(F)(F)F)nc4ccccn34)n2)cc1` [Cpd 11, N-[4-(difluoromethoxy)phenyl]-2-[2-(trifluoromethyl)imidazo[1,2-a]pyridin-3-yl]pyrimidin-4-amine], the EC50 lay in the range of 100 to 3000 nM.
For `COc1ccc(Nc2ccnc(-c3c(C(F)(F)F)nc4ccccn34)n2)cc1` [Cpd 12, N-(4-methoxyphenyl)-2-[2-(trifluoromethyl)imidazo[1,2-a]pyridin-3-yl]pyrimidin-4-amine], the EC50 lay in the range of 10 to 100 nM.
Regarding `FC(F)(F)c1ccc(Nc2ccnc(-c3c(C(F)(F)F)nc4ccc(Cl)cn34)n2)cc1` [Cpd 13, 2-[6-chloro-2-(trifluoromethyl)imidazo[1,2-a]pyridin-3-yl]-N-[4-(trifluoromethyl)phenyl]pyrimidin-4-amine], the EC50 is 100 to 3000 nM.
To `FC(F)(F)Oc1ccc(Nc2ccnc(-c3c(C(F)(F)F)nc4ccc(Cl)cn34)n2)cc1` [Cpd 14, 2-[6-chloro-2-(trifluoromethyl)imidazo[1,2-a]pyridin-3-yl]-N-[4-(trifluoromethoxy)phenyl]pyrimidin-4-amine] belongs 100 to 3000 nM; to `FC(F)(F)c1nc2ccc(Cl)cn2c1-c1nccc(Nc2ccc(Br)cc2)n1` [Cpd 15, N-(4-bromophenyl)-2-[6-chloro-2-(trifluoromethyl)imidazo[1,2-a]pyridin-3-yl]pyrimidin-4-amine], 10 to 100 nM.
`FC(F)Oc1ccc(Nc2ccnc(-c3c(C(F)(F)F)nc4ccc(Cl)cn34)n2)cc1` [Cpd 16, 2-[6-chloro-2-(trifluoromethyl)imidazo[1,2-a]pyridin-3-yl]-N-[4-(difluoromethoxy)phenyl]pyrimidin-4-amine] displayed a concentration giving a half-maximal response (EC50) of 10 to 100 nM.
To `FC(F)(F)c1nc2ccc(Cl)cn2c1-c1nccc(Nc2ccc(Cl)cc2)n1` [Cpd 17, N-(4-chlorophenyl)-2-[6-chloro-2-(trifluoromethyl)imidazo[1,2-a]pyridin-3-yl]pyrimidin-4-amine] belongs 100 to 3000 nM; to `Cc1nc2ccc(C(F)(F)F)cn2c1-c1nccc(Nc2ccc(C(F)(F)F)cc2)n1` [Cpd 18, 2-[2-methyl-6-(trifluoromethyl)imidazo[1,2-a]pyridin-3-yl]-N-[4-(trifluoromethyl)phenyl]pyrimidin-4-amine], 100 to 3000 nM.
To `Cc1nc2ccc(C(F)(F)F)cn2c1-c1nccc(Nc2ccc(Br)cc2)n1` [Cpd 19, N-(4-bromophenyl)-2-[2-methyl-6-(trifluoromethyl)imidazo[1,2-a]pyridin-3-yl]pyrimidin-4-amine] belongs 100 to 3000 nM; to `Cc1ccc(Nc2ccnc(-c3c(C)nc4ccc(C(F)(F)F)cn34)n2)cc1` [Cpd 20, N-(4-methylphenyl)-2-[2-methyl-6-(trifluoromethyl)imidazo[1,2-a]pyridin-3-yl]pyrimidin-4-amine], 100 to 3000 nM.
`Cc1ccc(Nc2ccnc(-c3c(C(F)(F)F)nc4ccc(F)cn34)n2)cc1` [Cpd 21, 2-[6-fluoro-2-(trifluoromethyl)imidazo[1,2-a]pyridin-3-yl]-N-(4-methylphenyl)pyrimidin-4-amine] gave an EC50 of 1 to 10 nM.
As to `COc1ccc(Nc2ccnc(-c3c(C(F)(F)F)nc4ccc(F)cn34)n2)cc1` [Cpd 22, 2-[6-fluoro-2-(trifluoromethyl)imidazo[1,2-a]pyridin-3-yl]-N-(4-methoxyphenyl)pyrimidin-4-amine], the EC50 lay in the range of 10 to 100 nM.
To `COc1ccc(Nc2ccnc(-c3c(C(F)(F)F)n(C)c4ccc(Cl)cc34)n2)cc1` [Cpd 23, 2-[5-chloro-1-methyl-2-(trifluoromethyl)-1H-indol-3-yl]-N-(4-methoxyphenyl)pyrimidin-4-amine] belongs 100 to 3000 nM.
`Cn1c(C(F)(F)F)c(-c2nccc(Nc3ccc(OC(F)F)cc3)n2)c2cc(Cl)ccc21` [Cpd 24, 2-[5-chloro-1-methyl-2-(trifluoromethyl)-1H-indol-3-yl]-N-[4-(difluoromethoxy)phenyl]pyrimidin-4-amine] showed an EC50 of 100 to 3000 nM.
In the case of `Cn1c(C(F)(F)F)c(-c2nccc(Nc3ccc(Br)cc3)n2)c2cc(Cl)ccc21` [Cpd 25, N-(4-bromophenyl)-2-[5-chloro-1-methyl-2-(trifluoromethyl)-1H-indol-3-yl]pyrimidin-4-amine], the EC50 was 100 to 3000 nM.
For `Fc1ccc2nc(-c3ccccc3)c(-c3nccc(Nc4ccc(Br)cc4)n3)n2c1` [Cpd 26, N-(4-bromophenyl)-2-(6-fluoro-2-phenylimidazo[1,2-a]pyridin-3-yl)pyrimidin-4-amine], the EC50 was 100 to 3000 nM.
To `Cc1ccc(Nc2ccnc(-c3c(-c4ccccc4)nc4ccc(F)cn34)n2)cc1` [Cpd 27, 2-(6-fluoro-2-phenylimidazo[1,2-a]pyridin-3-yl)-N-(4-methylphenyl)pyrimidin-4-amine] belongs 100 to 3000 nM; to `FC(F)(F)c1nc2ccccn2c1-c1nccc(Nc2ccc3c(c2)OCO3)n1` [Cpd 28, N-(1,3-benzodioxol-5-yl)-2-[2-(trifluoromethyl)imidazo[1,2-a]pyridin-3-yl]pyrimidin-4-amine], 100 to 3000 nM.
As for `FC(F)(F)c1nc2ccccn2c1-c1nccc(Nc2ccc3c(c2)OCCO3)n1` [Cpd 29, N-(2,3-dihydro-1,4-benzodioxin-6-yl)-2-[2-(trifluoromethyl)imidazo[1,2-a]pyridin-3-yl]pyrimidin-4-amine], the EC50 was 10 to 100 nM.
